Source: patent US7276501B2, “6-(4-substituted-anilino)pyrimidine derivatives, method for preparation thereof and antiviral pharmaceutical composition comprising the same” (B & C Biopharm, priority 2002, dated 2007)

Biological target: T1, HCV RNA polymerase (RNA dependent RNA polymerase, NS5B) (Hepatitis C virus genotype 1b, UniProt P26663)
T1 construct: the NS5B region (1773 bps) was amplified by PCR and cloned into pVLHIS, a baculovirus transfer vector; (His)6; made in house; host or cells: Sf9 insect cells (recombinant baculovirus, pVLHIS-NS5B)
Test: Inhibitory effect on activity of recombinant HCV RNA polymerase (NS5B) in vitro
Assay type: biochemical, HCV-1b type HCV
Description: Test of Inhibitory Effect on Activity of HCV RNA Polymerase (RNA Dependent RNA Polymerase, NS5B) in vitro
The following in vitro experiments were conducted to examine the inhibitory effect of the compounds according to the present invention on the activity of HCV RNA dependent RNA Polymerase.
HCV cDNA was obtained from the blood of HCV-1b type HCV patient and the NS5B region (1773 bps) was amplified by PCR and cloned into pVLHIS, a baculovirus transfer vector, to prepare a recombinant transfer vector. The prepared transfer vector and the wild-type AcNPV vector were cotransfected into Sf9 insect cell line to yield a recombinant baculovirus containing the histidine-tagged recombinant vector pVLHIS-NS5B. Sufficiently cultured insect cells were infected with the resulting recombinant baculovirus and cultured in Grace's medium containing 10% FBS for 3 to 4 days. The culture broth was centriftiged to obtain only the infected cells. The cells were washed three times with PBS and resuspended in binding buffer [50 mM Na-phosphate (pH 8.0), 30 mM NaCl, 10 mM imidazole, 1 mM DTT, 10% glycerol, 1% NP40], sonicated and the clearized lysate was obtained. Recombinant NS5B was purified by affinity column chromatography using a Ni-NTA His bind resin (Novagen) to produce pure NS5B protein. The (His)6-tagged NS5B was bound to Ni-NTA resin and washed the binding buffer containing 50 mM imidazole. The bound NS5B was eluted with the binding buffer containing imidazole in a step-gradient manner (100-300 mM). The NS5B protein fractions were dialyzed against buffer [50 mM Tris-HCl, 50 mM NaCl, 1 mM DTT, […], 10% glycerol], followed by at −70° C. in a small aliquot.
The 3′UTR cDNA (220 bp) of HCV was obtained from 1b HCV RNA of the blood of a hepatitis C patient by PCR and cloned into pcDNA3 vector. Linearized DNA fragment containing the 3′-UTR was prepared using the restriction enzyme Eco RI and used as a template for in vitro transcription using T7 RNA ploymerase to prepare RNA fragment containing 3′-UTR.
In vitro inhibitory activity of the compounds of the present invention on recombinant HCV RNA polymerase was measured as follows.
A streptavidin-coated well plate was prepared suitable for the sample to be examined. 25 μl of 2× assay buffer [50 mM Tris-Cl (pH 7.5), 100 mM NaCl, 10 mM MgCl2, 20 mM KCl, 1 mM EDTA, 1 mM DTT] and 10 μl of purified HCV RNA polymerase 200 ng and 3′-UTR template RNA were added to each well. Then, 5 μl of the sample to be examined was added to have final concentrations of 10, 1, 0.1 and 0.01 μg/mL. Finally, 10 μl of a reactant solution containing DIG-(digoxigenin)-UTP, biotin-UTP, ATP, CTP, GTP, and UTP as a nucleotide for the ploymerase reaction with the RNA template of HCV 3′-UTR RNA was added to each well. The reaction mixture was incubated at 22° C. for 60 minutes. By the action of HCV polymerase, newly generated RNAs including UTP conjugated with biotin and DIG were copied and these new RNAs could bind to streptavidin coated on the well by biotin-conjugated UTP. After completion of the reaction, the plate was washed three times with 200 μl of a washing buffer (pH 7.0, Roche Co.) to remove unreacted substances and impurities. Then, 100 μl of the secondary antibody anti-DIG-POD (peroxidase, Roche Co.) was added to each well and incubated at 37° C. for 1 hour. Again, the well plate was washed with the washing buffer. Finally, 100 μl of ABTS^R (Roche Co.) as a POD substrate was added to each well and reacted for 15 to 30 minutes. The optical density (OD) was measured using an ELISA reader (Bio-Tek instrument Co.) at 405 nm. The inhibitory effect on the activity of HCV polymerase was calculated by subtracting the OD of the positive control without the sample.

T1 sequence (P26663 2420-3010): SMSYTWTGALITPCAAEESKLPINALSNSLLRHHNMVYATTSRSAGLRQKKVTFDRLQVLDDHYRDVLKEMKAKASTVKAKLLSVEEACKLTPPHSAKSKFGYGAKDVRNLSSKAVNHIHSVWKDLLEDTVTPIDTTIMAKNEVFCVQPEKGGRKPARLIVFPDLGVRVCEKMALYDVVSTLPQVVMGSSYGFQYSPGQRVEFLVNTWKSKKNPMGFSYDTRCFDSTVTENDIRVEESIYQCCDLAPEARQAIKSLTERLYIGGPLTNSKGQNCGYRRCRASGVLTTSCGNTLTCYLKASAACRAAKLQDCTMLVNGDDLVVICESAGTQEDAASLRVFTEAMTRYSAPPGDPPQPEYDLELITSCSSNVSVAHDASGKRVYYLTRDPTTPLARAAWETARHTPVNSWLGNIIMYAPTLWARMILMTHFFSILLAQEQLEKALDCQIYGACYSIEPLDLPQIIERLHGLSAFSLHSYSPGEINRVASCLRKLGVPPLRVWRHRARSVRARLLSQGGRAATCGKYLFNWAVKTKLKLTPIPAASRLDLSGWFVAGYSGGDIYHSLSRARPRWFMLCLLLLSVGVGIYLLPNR

| SMILES | Inhibition of activity of HCV RNA polymerase (%) (0.01 μg/mL) | Inhibition of activity of HCV RNA polymerase (%) (0.1 μg/mL) | Inhibition of activity of HCV RNA polymerase (%) (1 μg/mL) | Inhibition of activity of HCV RNA polymerase (%) (10 μg/mL) |
| --- | --- | --- | --- | --- |
| CSc1nc(Nc2ccc(N3CCOCC3)cc2)cc(N2CCN(C(=O)c3ccncc3)CC2)n1 [Example 3, 2-methylthio-6-[4-(4-morpholino)anilino]-4-[4-[(4-pyridyl)carbonyl]piperazin-1-yl]pyrimidine] | 23% | 53% | 73% | 93% |
| CSc1nc(Nc2ccc(N3CCOCC3)cc2)cc(N2CCN(C(=O)OC(C)C)CC2)n1 [Example 1, 2-methylthio-6-[4-(4-morpholino)anilino]-4-[4-(isopropoxycarbonyl)piperazin-1-yl]pyrimidine] | 29% | 55% | 81% | 99% |
| CSc1nc(Nc2ccc(N3CCOCC3)cc2)cc(N2CCN(C(=O)c3cccnc3)CC2)n1 [Example 2, 2-methylthio-6-[4-(4-morpholino)anilino]-4-[4-[(3-pyridyl)carbonyl]piperazin-1-yl]pyrimidine] | 15% | 30% | 62% | 98% |
| CSc1nc(Nc2ccc(N3CCOCC3)cc2)cc(N2CCN(CC(=O)O)CC2)n1 [Example 4, 2-methylthio-6-[4-(4-morpholino)anilino]-4-[4-(carboxymethyl)piperazin-1-yl]pyrimidine] | 27% | 52% | 65% | 94% |
